Here are results for 5 molecules from patent US5942518A, “Water-soluble fluoroethylcamptothecin derivative and process for production thereof” (priority 1995, dated 1999).

By Ki is commonly meant the equilibrium dissociation constant of an inhibitor or competing ligand from its target. High values mean lower affinity, low ones higher affinity.

Counter-ions that a name gives are not always drawn.

The conditions of data set [1]: cited from earlier work.
The subject of data set [2] is mouse colonic cancer colon 26. Briefly: Antineoplastic effect against mouse colonic cancer colon 26 (Experimental Example 2). The class given is in vivo, CDF-1 female mice. Particulars: for TGI (tumor growth inhibition rate): colon 26, tail vein, 3 times at 4-day intervals, day 17-19; for antineoplastic activity against the growth of advanced colonic cancer 26 tumor: mice, intravenous administration. As to the method: (§1) To CDF-1 female mice of 9-week age, 1×10^6 cells of mouse colonic cancer colon 26 were implanted respectively under the skin of the axillary fossa. The medicine was administered to the tail vein three times from six days after the administration when the tumor was detected by finger touch at intervals of four days. On the 17th to 19th days from the implantation,the tumors were enucleated and weighed. The antineoplastic effect is represented by the tumor growth inhibition rate (TGI=(1-T/C)×100) derived from the ratio (T/C) of the average tumor weight (T) of the medicine-administered group to the average tumor weight (C) of the control group.

A short description of data set [3]: Toxicity in the colon 26 mouse study. In kind it is in vivo, CDF-1 female mice. As to the method:
as §1

The test system of data set [4] is sarcoma 180. The data set is described as follows: Antineoplastic effect against mouse sarcoma 180 tumor (Experimental Example 1). In kind it is in vivo, ICR female mice. Particulars: sarcoma 180, tail vein, 3 times at 4-day intervals, day 14. As for the experimental part: To ICR female mice of 5-week age, 5×10^6 cells of sarcoma 180 were implanted respectively under the skin of the axillary fossa. The medicine was administered to the tail vein three times from the day next to the administration at intervals of four days. After 14 days from the implantation, the tumors were enucleated and weighed. The antineoplastic effect is represented by the tumor growth inhibition rate (TGI=(1-T/C)×100) derived from the ratio (T/C) of the average tumor weight (T) of the medicine-administered group to the average tumor weight (C) of the control group.

The target of data set [5] is acetylcholine esterase. The data set is described as follows: Inhibition of acetylcholine esterase reaction (Experimental Example 3). In kind it is biochemical. As to the method:
The absorbance was measured at 412 nm. The reaction rate and the acetylthiocholine iodide concentration was plotted according to Lineweaver-Burk method to obtain Vmax, and Km. Then, the inhibition constant (Ki) was calculated from the inhibitor concentration.

For data set [6], the system named is nucleic acid synthesis. Particulars: background; cited from earlier work.

Sequence of acetylcholine esterase (P22303 32-614): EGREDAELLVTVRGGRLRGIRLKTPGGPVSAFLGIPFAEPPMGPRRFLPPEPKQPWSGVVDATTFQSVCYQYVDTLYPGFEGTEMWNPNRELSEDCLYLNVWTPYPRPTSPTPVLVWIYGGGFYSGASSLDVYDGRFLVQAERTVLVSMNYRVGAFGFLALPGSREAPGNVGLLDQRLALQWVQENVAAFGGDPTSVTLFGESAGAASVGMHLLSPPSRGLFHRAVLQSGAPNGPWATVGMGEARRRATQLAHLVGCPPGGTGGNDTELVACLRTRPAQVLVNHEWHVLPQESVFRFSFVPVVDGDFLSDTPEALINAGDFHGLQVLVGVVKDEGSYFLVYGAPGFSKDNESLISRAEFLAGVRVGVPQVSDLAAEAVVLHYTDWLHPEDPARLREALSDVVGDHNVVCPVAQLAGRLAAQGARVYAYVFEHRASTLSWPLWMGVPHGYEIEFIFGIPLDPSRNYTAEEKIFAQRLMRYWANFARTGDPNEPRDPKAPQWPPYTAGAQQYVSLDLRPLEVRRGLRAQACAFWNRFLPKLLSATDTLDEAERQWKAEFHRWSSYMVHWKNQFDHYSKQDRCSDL

Consider `CCC1(OC(=O)CN)C(=O)OCc2c1cc1n(c2=O)Cc2cc3cc4c(cc3nc2-1)OCO4` (stereo not drawn) [10,11-methylenedioxy-20-O-glycylcamptothecin], for which the “toxicity / side effects” value in data set [1] (known camptothecin derivatives, background) is listed as “highly toxic”.
Turning to `CC[C@@]1(OC(=O)CN)C(=O)OCc2c1cc1n(c2=O)Cc2cc3cc4c(cc3nc2-1)OCO4.Cl` [Compound 1, 10,11-Methylenedioxy-20-O-glycylcamptothecin hydrochloride], the figures for the “TGI (tumor growth inhibition rate)” value in data set [2] (total dose 7.5 mg/kg), in data set [2] (total dose 15 mg/kg) and in data set [2] (total dose 30 mg/kg) were 21%, 22% and 44%, respectively. Moreover, the “antineoplastic activity against the growth of advanced colonic cancer 26 tumor” value in data set [2] is “not inhibited”. Moreover, the Toxicity entry was “toxic” in data set [3] (at a dose of as low as 20 mg/kg) and “Toxic” in data set [3] (colon 26 mice, tail vein, total dose 60 mg/kg).
Regarding `CCOc1ccc2nc3c(c(CC)c2c1)Cn1c-3cc2c(c1=O)COC(=O)C2(CCF)OC(=O)CN` (stereo not drawn) [Example 1, 4-[(aminomethylcarbonyl)oxy]-9-ethoxy-11-ethyl-4-(2-fluoroethyl)-1H-pyrano[3',4':6,7]indolidino[1,2-b]quinoline-3,14(4H,12H)-dione hydrochloride], the “TGI (tumor growth inhibition rate)” value was 83% in data set [4] (total dose 60 mg/kg); 91% in data set [4] (total dose 120 mg/kg); 28% in data set [2] (total dose 30 mg/kg); 59% in data set [2] (total dose 60 mg/kg); 81% in data set [2] (total dose 120 mg/kg); 82% in data set [2] (total dose 180 mg/kg). For the same molecule, in data set [5], the Ki is 20 to 40 µM.
As for `CCc1c2c(nc3ccc(OC(=O)N4CCC(N5CCCCC5)CC4)cc13)-c1cc3c(c(=O)n1C2)COC(=O)[C@]3(O)CC` [Irinotecan hydrochloride, irinotecan hydrochloride], the “TGI (tumor growth inhibition rate)” value in data set [4] (total dose 30 mg/kg) is given as 44%; in data set [4] (total dose 60 mg/kg), 75%; in data set [4] (total dose 120 mg/kg) it was 74%; in data set [2] (total dose 30 mg/kg) it was 8%; in data set [2] (total dose 60 mg/kg), 28%; in data set [2] (total dose 120 mg/kg), 34%. The “antineoplastic activity against the growth of advanced colonic cancer 26 tumor” value in data set [2] is on record as “not inhibited”. Also, the Toxicity result in data set [3] (colon 26 mice, tail vein, total dose 120 mg/kg) is given as “Toxic”.
For the molecule `CC[C@@]1(O)C(=O)OCc2c1cc1n(c2=O)Cc2cc3ccccc3nc2-1` [camptothecin, Camptothecin], the clinical toxicity entry in data set [1] (clinical tests in the United States) was “discontinued because of its toxicity”. Further, the “antineoplastic activity by inhibiting nucleic acid synthesis” value in data set [6] is recorded as “exhibit antineoplastic activity by inhibiting nucleic acid synthesis”.
